The structures appear in SMILES notation. Where two headings read alike, the source gives them in different places.

The source of these data is patent US20220401383A1 (SHINKEI THERAPEUTICS, INC., priority 2019, published 2022).

In data set [1] the test system is CBD metabolism in human liver microsomes. The experiment in a line: Example 1: inhibition of CBD metabolism in pooled human liver microsomes. The conditions noted are these: for Inhibition of CBD metabolism (in words): human liver microsomes; for IC50: read-out: HLM CYP inhibition IC50, substrate CBD, pooled HLM 0.1 mg/mL, CBD 1.64 μM, 15 minutes, n = 1.
For data set [2] the following is noted: cited from earlier work.
The subject of data set [3] is Maximum Electroconvulsive Shock (MES) model. The conditions noted are these: MES model in mouse; cited from earlier work.
For data set [4], the system named is CBD metabolism in human liver microsomes (CYP3A4 and CYP2C19). The experiment in a line: in vitro.
The conditions of data set [5]: cited from earlier work. This is another data set of the same source.
Data set [6] in a line: Clinical pharmacokinetics (literature data). The conditions noted are these: human, in vivo, oral.
For data set [7], the target named is T1, CYP2C8 (Homo sapiens, UniProt P10632).
T1 sequence (P10632 1-490): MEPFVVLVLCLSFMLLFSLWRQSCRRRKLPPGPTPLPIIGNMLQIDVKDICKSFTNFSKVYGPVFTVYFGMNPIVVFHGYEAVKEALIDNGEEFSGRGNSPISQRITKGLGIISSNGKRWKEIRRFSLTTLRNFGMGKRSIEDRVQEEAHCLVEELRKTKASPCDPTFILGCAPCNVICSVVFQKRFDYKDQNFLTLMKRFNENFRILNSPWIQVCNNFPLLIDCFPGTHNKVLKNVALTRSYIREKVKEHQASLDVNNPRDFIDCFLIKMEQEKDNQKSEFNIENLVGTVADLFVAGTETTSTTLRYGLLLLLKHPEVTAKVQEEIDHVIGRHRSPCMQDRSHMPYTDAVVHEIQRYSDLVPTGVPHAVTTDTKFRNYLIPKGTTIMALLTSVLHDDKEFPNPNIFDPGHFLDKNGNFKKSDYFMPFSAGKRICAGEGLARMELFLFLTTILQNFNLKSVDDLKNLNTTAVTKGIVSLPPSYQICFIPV
The conditions noted are these: cited from earlier work.

The target in data set [8] is T2, CYP1A2 (Homo sapiens, UniProt P05177).
T2 sequence (P05177 1-516): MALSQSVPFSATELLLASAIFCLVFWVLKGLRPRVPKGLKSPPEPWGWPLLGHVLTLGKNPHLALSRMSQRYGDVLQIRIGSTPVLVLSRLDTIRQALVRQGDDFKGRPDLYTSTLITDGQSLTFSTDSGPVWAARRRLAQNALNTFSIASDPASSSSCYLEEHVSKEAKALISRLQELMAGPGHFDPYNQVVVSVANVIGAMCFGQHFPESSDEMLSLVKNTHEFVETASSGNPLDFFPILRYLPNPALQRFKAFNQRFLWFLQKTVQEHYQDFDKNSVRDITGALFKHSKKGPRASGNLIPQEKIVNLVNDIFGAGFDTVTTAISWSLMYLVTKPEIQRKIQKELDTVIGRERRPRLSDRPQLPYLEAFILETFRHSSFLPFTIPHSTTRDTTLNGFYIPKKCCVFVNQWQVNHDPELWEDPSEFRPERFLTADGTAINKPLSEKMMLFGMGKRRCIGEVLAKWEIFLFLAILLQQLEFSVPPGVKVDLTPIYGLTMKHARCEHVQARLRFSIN
The conditions noted are these: cited from earlier work.

In data set [9] the target is T3, CYP2C19 (Homo sapiens, UniProt P33261). The conditions noted are these: cited from earlier work.
T3 sequence (P33261 whole entry): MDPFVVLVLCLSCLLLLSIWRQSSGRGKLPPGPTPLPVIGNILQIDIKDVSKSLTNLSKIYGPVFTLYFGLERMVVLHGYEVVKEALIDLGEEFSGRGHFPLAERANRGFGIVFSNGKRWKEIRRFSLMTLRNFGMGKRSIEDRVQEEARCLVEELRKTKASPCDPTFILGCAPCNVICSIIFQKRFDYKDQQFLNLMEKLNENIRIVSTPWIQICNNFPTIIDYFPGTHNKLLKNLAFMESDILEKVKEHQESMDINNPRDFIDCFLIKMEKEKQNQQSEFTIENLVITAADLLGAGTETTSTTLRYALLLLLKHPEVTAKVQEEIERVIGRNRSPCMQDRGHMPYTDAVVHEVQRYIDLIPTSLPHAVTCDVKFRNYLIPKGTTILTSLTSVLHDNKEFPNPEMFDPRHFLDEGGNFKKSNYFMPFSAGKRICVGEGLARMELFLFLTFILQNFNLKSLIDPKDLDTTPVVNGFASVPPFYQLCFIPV
In data set [10] the target is CYP2D6 (Homo sapiens, UniProt P10635). The experiment in a line: biochemical.
CYP2D6, sequence (P10635 whole entry): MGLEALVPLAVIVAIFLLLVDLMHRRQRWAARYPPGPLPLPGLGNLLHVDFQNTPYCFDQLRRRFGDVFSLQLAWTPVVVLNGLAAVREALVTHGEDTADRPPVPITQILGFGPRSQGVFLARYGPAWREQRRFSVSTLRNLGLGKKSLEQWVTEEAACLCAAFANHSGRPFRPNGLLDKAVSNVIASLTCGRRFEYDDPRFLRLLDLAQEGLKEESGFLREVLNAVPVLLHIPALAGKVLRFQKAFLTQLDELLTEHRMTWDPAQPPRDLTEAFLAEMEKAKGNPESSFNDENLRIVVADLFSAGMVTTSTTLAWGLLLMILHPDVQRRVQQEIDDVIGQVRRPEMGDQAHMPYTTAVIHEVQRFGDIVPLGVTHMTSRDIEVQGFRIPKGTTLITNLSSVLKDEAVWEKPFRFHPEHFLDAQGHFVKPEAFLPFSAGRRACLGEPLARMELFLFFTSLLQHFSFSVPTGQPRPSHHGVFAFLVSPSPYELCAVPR
Method: Incubation mixtures were prepared with the following:
(a) potassium phosphate buffer;
(b) 0.1 mg/mL microsomal protein;
(c) isoform-specific probe substrates;
(d) specific concentrations of the test compounds, blank solvent, or positive controls (isoform-specific inhibitors); and
(e) an NADPH-regenerating cofactor solution.
Upon completion of the incubation, the reactions were quenched with an acetonitrile solution containing an internal standard. The samples were processed and analyzed by LC-MS/MS to monitor for substrate metabolite formation. The enzyme activity in the presence of the compounds were normalized with the enzyme activity in the absence of the compounds and expressed as a percentage of activity. The inhibitory potential (IC50) of the compounds were determined using nonlinear regression of percentage of activity versus compound concentration.
For data set [11], the target named is T3, CYP2C19.

`C/C(=C\COc1c2ccoc2cc2oc(=O)ccc12)CCC(O)C(C)(C)O` (stereo not drawn) [6,7-dihydroxybergamottin]: in [1], the “Inhibition of CBD metabolism (in words)” value is “effective inhibitors of CBD metabolism” and the IC50 worked out at 23.3 µM.
In the case of `C=C(C)[C@@H]1CCC(C(=O)O)=C[C@H]1c1c(O)cc(CCCCC)cc1O` [7-COOH-CBD], in data set [2] (after 1500 mg CBD dose), the “Concentration of metabolite relative to CBD” value is given as 47 fold and the “Share of the total drug material measured in systemic circulation” value is recorded as 97%. The Anticonvulsant effect result in data set [3] was “inactive”.
With `C=C(C)[C@@H]1CCC(CO)=C[C@H]1c1c(O)cc(CCCCC)cc1O` [7-OH-CBD], the Anticonvulsant effect entry in [3] is “anticonvulsant effect similar to CBD”.
As for `CC(C)=CCC/C(C)=C/COc1c2ccoc2cc2oc(=O)ccc12` [Bergamottin], the half-maximal inhibitory concentration (IC50) at 15 min in [4] was over 33 µM.
Turning to `C=C(C)[C@@H]1CCC(C)=C[C@H]1c1c(O)cc(CCCCC)cc1O` [CBD, cannabidiol], the “Log P (partition coefficient)” value in data set [5] is 6.1. Besides, the “Share of the total drug material measured in systemic circulation” value in data set [2] (after 1500 mg CBD dose) was 2%. For the same compound, the “CBD AUC” value in [2] (single dose 200 mg) is 499 ng·h/mL; in data set [2] (single dose 750 mg), 1070 ng·h/mL; in data set [2] (single dose 1500 mg), 1444 ng·h/mL; in data set [2] (single dose 3000 mg), 2669 ng·h/mL; in data set [2] (single dose 4500 mg), 3215 ng·h/mL; in [2] (single dose 6000 mg), 3696 ng·h/mL. The bioavailability came out at 100% in [6] (200 mg); 57% in [6] (750 mg); 39% in [6] (1500 mg); 36% in data set [6] (3000 mg); 29% in data set [6] (4500 mg); 25% in [6] (6000 mg).
Turning to `CC(C)c1nc(CN(C)C(=O)N[C@@H](CCN2CCOCC2)C(=O)N[C@H](CC[C@H](Cc2ccccc2)NC(=O)OCc2cncs2)Cc2ccccc2)cs1` [Cobicistat], the IC50 in [7] was over 25 µM; in data set [8], over 25 µM; in data set [9], over 25 µM; in [10], 0.479 µM; in [11] it was 0.331 µM. Besides, the “Inhibition of CBD metabolism (in words)” value in data set [1] is recorded as “strong inhibitor of CBD metabolism”.
With `CNCCC(Oc1ccc(C(F)(F)F)cc1)c1ccccc1` (stereo not drawn) [Fluoxetine], the “Inhibition of CBD metabolism (in words)” value in data set [1] is recorded as “unable to inhibit metabolism of CBD”. For the same compound, the IC50 at 15 min in [4] was over 33 µM.
Taken in the same sequence, the figures for `Cc1c(OCC(F)(F)F)ccnc1C[S+]([O-])c1nc2ccccc2[nH]1` (stereo not drawn) [Lansoprazole] were “effective inhibitors of CBD metabolism” and 20 µM.
As to `COc1ccc2[nH]c(S(=O)(=O)Cc3ncc(C)c(OC)c3C)nc2c1` [Omeprazole Sulphone], in data set [1], the IC50 was over 33 µM.
Compound `COc1ccc2[nH]c([S+]([O-])Cc3ncc(C)c(OC)c3C)nc2c1` (stereo not drawn) [Omeprazole] gave an IC50 at 15 min in [4] of over 33 µM.
